What all share (experiment): Minimum inhibitory concentration (MIC)
Holding throughout (type): cell-based

For assay [1], the system named is Escherichia coli NIHJ JC-2. The settings on record: NIHJJC2, read-out: Minimum inhibitory concentrations (MIC). From the text:
(§1) The cephem compounds (I) of this invention and the salts or ester thereof are all novel compounds which are useful as antibacterial agent. To illustrate the utility of the new compound of this invention, we have determined and show below the minimum inhibitory concentrations of some representative examples of the new cephem compounds of this invention against growth of various bacteria in Table 1.

Assay [2] has as its system Klebsiella pneumoniae PCI-602. The settings on record: PCI602, read-out: Minimum inhibitory concentrations (MIC).
Description: as §1

For the next assay, the system named is Proteus mirabilis GN-79. The settings on record: GN79, read-out: Minimum inhibitory concentrations (MIC).
Description: as §1

The next assay deals with Proteus rettgeri GN-624. The settings on record: Providencia rettgeri, GN624, read-out: Minimum inhibitory concentrations (MIC).
Description: as §1

The subject of the next assay is Proteus vulgaris GN-76. The settings on record: GN76, read-out: Minimum inhibitory concentrations (MIC).
Description: as §1

For assay [3], the system named is Pseudomonas cepacia M-0527. The settings on record: Burkholderia cepacia, M0527, read-out: Minimum inhibitory concentrations (MIC).
Description: as §1

The subject of assay [4] is Salmonella typhimurium LT-2. The settings on record: Salmonella enterica, read-out: Minimum inhibitory concentrations (MIC).
Description: as §1

Assay [5] concerns Serratia marcescens No. 1. The settings on record: read-out: Minimum inhibitory concentrations (MIC).
Description: as §1

The subject of assay [6] is Staphylococcus aureus 209P JC-1. The settings on record: read-out: Minimum inhibitory concentrations (MIC).
Description: as §1

Assay [7] has as its system Staphylococcus aureus Smith. The settings on record: read-out: Minimum inhibitory concentrations (MIC).
Description: as §1

Values after ≈ are worked out from the molar mass of the structure shown.

Turning to `CO/N=C(\C(=O)NC1C(=O)N2C(C(=O)O)=C(/C=C\C(F)(F)F)CSC12)c1csc(N)n1` (stereo not drawn) [Compound (A), 7-[2-methoxyimino-2-(2-aminothiazol-4-yl)acetamido]-3-(3,3,3-trifluoropropenyl)-3-cephem-4-carboxylic acid (syn-isomer, cis-isomer)], the MIC was determined as 0.78 µg/mL (≈ 1.63 µM) in assay [1]; 0.39 µg/mL (≈ 0.817 µM) in [2]; 0.39 µg/mL (≈ 0.817 µM) with Proteus mirabilis GN-79; 3.13 µg/mL (≈ 6.56 µM) in the assay on Proteus rettgeri GN-624; 0.2 µg/mL (≈ 0.419 µM) in the assay with Proteus vulgaris GN-76; 6.25 µg/mL (≈ 13.1 µM) in assay [3]. For the same compound, the MIC in assay [4] came to 0.39 µg/mL (≈ 0.817 µM); in assay [5] it was 0.2 µg/mL (≈ 0.419 µM); in assay [6] it was 0.2 µg/mL (≈ 0.419 µM); in assay [7], 0.39 µg/mL (≈ 0.817 µM).

Consider `CO/N=C(\C(=O)NC1C(=O)N2C(C(=O)O)=C(/C=C/C(F)(F)F)CSC12)c1csc(N)n1` (stereo not drawn) [Compound (B), 7-[2-methoxyimino-2-(2-aminothiazol-4-yl)acetamido]-3-(3,3,3-trifluoropropenyl)-3-cephem-4-carboxylic acid (syn-isomer, trans-isomer)], for which the MIC came out at 0.39 µg/mL (≈ 0.817 µM) in assay [1]; 0.39 µg/mL (≈ 0.817 µM) in assay [2]; 0.39 µg/mL (≈ 0.817 µM) in the assay with Proteus mirabilis GN-79; 1.56 µg/mL (≈ 3.27 µM) in the assay on Proteus rettgeri GN-624; 0.2 µg/mL (≈ 0.419 µM) with Proteus vulgaris GN-76; 6.25 µg/mL (≈ 13.1 µM) in assay [3]. Moreover, the MIC in [4] came to 0.2 µg/mL (≈ 0.419 µM); in assay [5], 0.39 µg/mL (≈ 0.817 µM); in [6] it was 0.39 µg/mL (≈ 0.817 µM); in [7], 0.78 µg/mL (≈ 1.63 µM).

(Values after patent publication US4687769A, “3-(3,3,3-trifluoropropenyl) cephalosporins” (Meiji Seika Kaisha, Ltd., priority 1984, dated 1987).)
